In the supplement of paper PMC10307832:

Assays:
Test in all cases: relative viability (nuclei count vs DMSO), 5 days (fraction); higher = more cells survive
[1] = compound: CC1=CC(=CC=C1)NC2=NC(=CS2)C3=CC=NC=C3 + CCNC(=O)c1noc(-c2cc(C(C)C)c(O)cc2O)c1-c1ccc(CN2CCOCC2)cc1 [Luminespib] (partner 0.01 µM)
Procedure, shortened: (§1)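 Lung cancer cell lines, seeded in 1536-well plates, were treated the following day by pin tool with a single drug or with five library-drug doses (not always all listed) in √10 steps on top of a fixed anchor-drug dose. Cells were fixed and nuclei stained in one step after 5 days, and nuclei were counted. Relative viability is the nuclei count for treated wells divided by that for vehicle wells, reported as medians of duplicate plates.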

Masitinib + OSI-027 = compound: Cc1ccc(NC(=O)c2ccc(CN3CCN(C)CC3)cc2)cc1Nc1nc(-c2cccnc2)cs1 [Masitinib] + COc1cccc2cc(-c3nc([C@H]4CC[C@H](C(=O)O)CC4)n4ncnc(N)c34)[nH]c12 [OSI-027] (partner 0.5 µM)
Procedure, shortened: as §1

[2] = compound: CC1=CC(=CC=C1)NC2=NC(=CS2)C3=CC=NC=C3 + CS(=O)(=O)N1CCN(Cc2cc3nc(-c4cccc5[nH]ncc45)nc(N4CCOCC4)c3s2)CC1 [Pictilisib] (partner 1 µM)
Procedure, shortened: as §1

Masitinib + AZD7762 = compound: Cc1ccc(NC(=O)c2ccc(CN3CCN(C)CC3)cc2)cc1Nc1nc(-c2cccnc2)cs1 [Masitinib] + NC(=O)Nc1cc(-c2cccc(F)c2)sc1C(=O)N[C@H]1CCCNC1 [AZD7762] (partner 0.2 µM)
Procedure, shortened: as §1

Cell Line	relative viability ([1]; first compound 0.08 µM)	relative viability ([1]; first compound 0.253 µM)	relative viability ([1]; first compound 0.8 µM)	relative viability ([1]; first compound 2.53 µM)	relative viability ([1]; first compound 8 µM)	relative viability (Masitinib + OSI-027; first compound 0.01 µM)	relative viability (Masitinib + OSI-027; first compound 0.03162 µM)	relative viability (Masitinib + OSI-027; first compound 0.1 µM)	relative viability (Masitinib + OSI-027; first compound 0.3162 µM)	relative viability (Masitinib + OSI-027; first compound 1 µM)	relative viability ([2]; first compound 0.08 µM)	relative viability ([2]; first compound 0.253 µM)	relative viability ([2]; first compound 0.8 µM)	relative viability ([2]; first compound 2.53 µM)	relative viability ([2]; first compound 8 µM)	relative viability (Masitinib + AZD7762; first compound 0.03162 µM)	relative viability (Masitinib + AZD7762; first compound 0.1 µM)	relative viability (Masitinib + AZD7762; first compound 0.3162 µM)	relative viability (Masitinib + AZD7762; first compound 1 µM)	relative viability (Masitinib + AZD7762; first compound 0.01 µM)
LCLC-103H	1	0.824	0.878	0.943	0.608	0.412	0.526	0.414	0.459	0.404	0.402	0.54	0.551	0.572	0.546	0.885	0.566	0.831	0.791	
LK-2		0.161	0.207		0.183	0.194	0.214	0.198	0.201	0.243	0.572	0.569	0.853		0.674	0.346	0.692	0.525	0.302	0.4
LOU-NH91	0.319	0.351	0.33	0.297	0.314	0.702	0.667	0.723	0.58	0.655	0.482	0.382	0.464	0.44	0.468	0.628	0.799	0.642	0.548	0.748
LU99A	0.256	0.213	0.242	0.302	0.254	0.257	0.331	0.311	0.316	0.29		0.309	0.306	0.368	0.326	0.293	0.312	0.319	0.273	0.462
LXF-289	0.655	0.649	0.573	0.646	0.69	0.747	0.963	0.794	0.861	0.767	0.714	0.75	0.733	0.715	0.74	1.18	1.18	1.14	1.02	0.996
NCI-H23	0.208	0.184	0.208	0.221	0.22	0.49	0.572	0.617	0.575	0.559	0.33	0.482	0.555	0.434	0.462	0.273	0.277	0.237	0.198	0.21
NCI-H322M	0.76	0.893	0.924	0.961	0.982	0.64	0.531	0.605	0.551	0.514	0.446	0.452	0.372	0.495	0.622	0.533	0.423	0.515	0.534	0.435
NCI-H358	0.286	0.605	0.305	0.436	0.231	0.85	0.762	0.859	0.665	0.731	0.289	0.345	0.307	0.381	0.38	0.491	0.548	0.509	0.414	0.524
NCI-H441	0.411	0.328	0.411	0.391	0.384	0.654	0.628	0.798	0.717	0.429	0.44	0.529	0.476	0.489	0.543	1.2	1.28	1.35	1.28	1.23
NCI-H460	0.0315	0.0322	0.04	0.0298	0.0349	0.796	0.705	0.674	0.558	0.522	0.311	0.257	0.337	0.354	0.336	0.605	0.655	0.357	0.525	0.62
NCI-H596	0.938	0.959	0.809	0.911	0.814	0.87	0.678	0.73	0.717	0.697	0.347	0.378	0.34	0.402	0.264	0.978	1.07	1.1	0.973	1.24
NCI-H647	0.114	0.162	0.177	0.313	0.338	0.685	0.651	0.699	0.579	0.602		0.289	0.388	0.317	0.231	0.477	0.535	0.502	0.469	0.587
NCI-H650	0.866	0.803	0.929	0.687	0.893	0.538	0.427	0.536	0.344	0.524	0.771	0.863	0.893		0.822	1.02	1.23	1.15	0.946	1.07
NCI-H727		0.373	0.378	0.374	0.402	0.523	0.601	0.637	0.576	0.442	0.26	0.287	0.313	0.343	0.375	0.626	0.566	0.495	0.606	0.592
NCI-H838	0.38	0.318	0.324	0.316	0.25	0.353	0.331	0.385	0.342	0.394	0.382	0.334	0.4	0.288	0.289	0.883	0.913	0.845	0.892	0.818
NCI-H1355	0.64	0.583	0.375	0.477	0.502	0.345	0.359	0.42	0.345	0.37	0.268	0.315	0.348	0.292	0.327	0.747	0.791	0.481	0.517	0.726
